{"source": "paper PMC2630410", "about": "(Molecular and biochemical parasitology, 2008)", "molecules": {"B1": {"name": "TbNT12.1 (Trypanosoma brucei brucei TREU927) (protein)", "chain": "MMLGFESVSEFTVYITFIFFGMSAVVVTTSIFSIPFFFIEYYKYAQGDPNAEAEDQRFWNNVFTYYNATTFLVEFLLTLFMLTNLGRRIPLAVRLGAGLILSILAVFVVIMVTIIKTTETGAKVTIMLVGVINGVAATLCDTGNGALISPFPTKFFSAVVWGVAVCGIITSFFSIVIKASMESNYESMLTQSRIFFGLVVLLEVVSCILLVLLRKNPYAMKYAAEFRYAARERTNACENKESGASNGPAEQDEDSVAIDNNTTKGNVMTVTVDPDTMKDTDQVEDITNSQQMLKAKVSVVLKRVWPMLAAGFLAFSTTFLVYPGVFFAVKTDVPNGWYMTITAAMFHFGDFLSRLLLQFKRLQPSPRYVVVGTFARVFLIIPLVFCVRGIIGGTLLPYILSFLWGLTYGYFGGMALIHTPRTGSLTAAGERSLAANCAVIAILCGLFSGSMLALAVKEGLPQ"}}, "key": {"[1]": {"molecular_target": "T1, TbNT11.1 (Trypanosoma brucei brucei, UniProt Q38CR7)", "type": "cell-based", "conditions": "for TbNT11.1-mediated uptake of radiolabeled substrate: 1 μM [3H]substrate, Δlmant3[pTbNT11] line"}, "[2]": {"molecular_target": "T1, TbNT11.1", "type": "cell-based", "conditions": "for Inhibition of [14C]pentamidine uptake by unlabeled nucleobase: 1 mM unlabeled substrate, TbNT11-expressing oocytes"}, "[3]": {"molecular_target": "T2, TbNT12.1 (Trypanosoma brucei brucei, UniProt Q57TQ7)", "T2 sequence (Q57TQ7 1-462)": "B1 chain", "experiment": "Uptake of adenine and pentamidine by TbNT12.1 expressed in Xenopus oocytes", "type": "cell-based", "conditions": "for Transport by TbNT12.1 (in words): versus water-injected oocytes"}, "[4]": {"system": "TbNT12.2", "experiment": "Uptake of adenine and pentamidine by TbNT12.2 expressed in Xenopus oocytes", "type": "cell-based, Trypanosoma brucei", "conditions": "for Transport by TbNT12.2 (in words): Xenopus oocytes, versus water-injected oocytes"}, "[5]": {"molecular_target": "T1, TbNT11.1", "type": "cell-based", "conditions": "for Inhibition of [3H]hypoxanthine uptake by nucleosides: 1 mM nucleoside, Δlmant3[pTbNT11.1] parasites; for Inhibition of [3H]hypoxanthine uptake by nucleosides / Inhibition of hypoxanthine uptake by pyrimidine nucleobases: data not shown; for Inhibition of hypoxanthine uptake by pyrimidine nucleobases: concentrations up to 1 mM; for Inhibition of [3H]hypoxanthine uptake by TbNT11.1 (in words): 1 μM [3H]hypoxanthine, graded concentrations of inhibitor"}, "[6]": {"molecular_target": "T1, TbNT11.1", "experiment": "Inhibition of [3H]adenine uptake by TbNT11.1 in Δlmant3[pTbNT11.1] parasites", "type": "cell-based"}, "[7]": {"molecular_target": "T1, TbNT11.1", "type": "cell-based", "conditions": "oocytes expressing TbNT11.1; data not shown"}, "[8]": {"molecular_target": "T1, TbNT11.1", "experiment": "[3H]adenosine uptake by Δldnt1/Δldnt2[pTbNT11.1] line", "type": "cell-based", "conditions": "0.5 μM or 100 μM [3H]adenosine; data not shown"}, "[9]": {"molecular_target": "T2, TbNT12.1", "experiment": "Adenine uptake by TbNT12.1 expressed in Δlmant3 promastigotes", "type": "cell-based", "conditions": "50 μM adenine, n=3"}, "[10]": {"system": "TbNT12.2", "experiment": "Adenine uptake by TbNT12.2 expressed in Δlmant3 promastigotes", "type": "cell-based, Trypanosoma brucei", "conditions": "50 μM adenine, n=3"}, "[11]": {"system": "Δlmant3 parasites", "experiment": "Background adenine uptake by Δlmant3 parasites", "type": "cell-based, Leishmania major", "conditions": "50 μM adenine"}, "[12]": {"system": "PPT1", "experiment": "Inhibition of [14C]pentamidine uptake by PF trypanosomes", "type": "cell-based, Trypanosoma brucei", "conditions": "1 mM nucleobase, 25 μM [14C]pentamidine; data not shown"}, "[13]": {"system": "O=c1[nH]cnc2nc[nH]c12", "experiment": "cells, lysate or membranes", "conditions": "other: substrate saturation, 1 min, Δlmant3[pTbNT11.1], n=3"}, "[14]": {"molecular_target": "TbNT8.1 (Trypanosoma brucei brucei, UniProt Q386F1)", "type": "cell-based", "conditions": "12.5 μM [3H]hypoxanthine"}, "[15]": {"substrate": "N=C(N)c1ccc(OCCCCCOc2ccc(C(=N)N)cc2)cc1", "experiment": "Uptake of adenine and pentamidine by TbNT12.1 expressed in Xenopus oocytes", "type": "cell-based, Trypanosoma brucei", "conditions": "other: Xenopus oocytes, n=3; 16.0 °C"}, "[16]": {"conditions": "transport rates linear from 0–1 mM adenine"}}, "note": "Read-outs that look alike come from different tables or passages of the source."}
{"molecule": "O=c1[nH]c(=O)c2nc[nH]c2[nH]1", "note": "[xanthine]", "values": [{"measurement": "TbNT11.1-mediated uptake of radiolabeled substrate", "setting": "[1]", "value": "mediated uptake"}, {"measurement": "Km", "setting": "[1]; read-out: Km for uptake by TbNT11.1, substrate saturation, 1 min, Δlmant3[pTbNT11.1], n=3", "value": "7.2 ± 2.3", "unit": "µM"}, {"measurement": "Inhibition of [14C]pentamidine uptake by unlabeled nucleobase", "setting": "[2]; 50 μM [14C]pentamidine", "value": "partially inhibited"}, {"measurement": "Transport by TbNT12.1 (in words)", "setting": "[3]; Xenopus oocytes", "value": "did not mediate the uptake"}, {"measurement": "Transport by TbNT12.2 (in words)", "setting": "[4]", "value": "did not mediate the uptake"}]}
{"molecule": "Nc1nc2c(ncn2[C@@H]2O[C@H](CO)[C@@H](O)[C@H]2O)c(=O)[nH]1", "note": "[guanosine]", "values": [{"measurement": "Inhibition of [3H]hypoxanthine uptake by nucleosides", "setting": "[5]", "value": "failure"}]}
{"molecule": "O=c1cc[nH]c(=O)[nH]1", "note": "[uracil]", "values": [{"measurement": "Inhibition of hypoxanthine uptake by pyrimidine nucleobases", "setting": "[5]", "value": "did not inhibit"}]}
{"molecule": "Nc1nc(N)nc(Nc2ccc([As]3SCC(CO)S3)cc2)n1", "note": "(centres unmarked) [melarsoprol]", "values": [{"measurement": "EC50", "setting": "[6]", "value": 12.9, "unit": "µM"}, {"measurement": "Melarsoprol uptake over background of water injected oocytes", "setting": "[7]", "value": "no uptake"}]}
{"molecule": "Nc1ncnc2c1ncn2[C@@H]1O[C@H](CO)[C@@H](O)[C@H]1O", "note": "[adenosine]", "values": [{"measurement": "Inhibition of [3H]hypoxanthine uptake by TbNT11.1 (in words)", "setting": "[5]", "value": "an inhibitor"}, {"measurement": "Uptake of [3H]adenosine", "setting": "[8]", "value": "did not take up"}]}
{"molecule": "Nc1ncnc2[nH]cnc12", "note": "[adenine]", "values": [{"measurement": "TbNT11.1-mediated uptake of radiolabeled substrate", "setting": "[1]", "value": "mediated uptake"}, {"measurement": "Ki", "setting": "[5]", "value": 8, "unit": "µM"}, {"measurement": "Inhibition of [14C]pentamidine uptake by unlabeled nucleobase", "setting": "[2]; 50 μM [14C]pentamidine", "value": "very poor inhibitor"}, {"measurement": "Transport by TbNT12.1 (in words)", "setting": "[3]; Xenopus oocytes", "value": "transport"}, {"measurement": "Affinity of TbNT12.1 for substrate", "setting": "[3]; [16]", "value": "low"}, {"measurement": "Transport by TbNT12.2 (in words)", "setting": "[4]", "value": "transport"}, {"measurement": "Affinity of TbNT12.2 for substrate", "setting": "[4]; [16]", "value": "low"}, {"measurement": "Uptake of adenine, TbNT12.1 in Δlmant3 promastigotes", "setting": "[9]", "value": "103 ± 2", "unit": "pmol/min/10^7 parasites"}, {"measurement": "Uptake of adenine, TbNT12.2 in Δlmant3 promastigotes", "setting": "[10]", "value": "86.5 ± 1.1", "unit": "pmol/min/10^7 parasites"}, {"measurement": "Background uptake of adenine in Δlmant3 parasites", "setting": "[11]", "value": "41.8 ± 1.4", "unit": "pmol/min/10^7 parasites"}, {"measurement": "Inhibition of [14C]pentamidine uptake by PFs", "setting": "[12]", "value": "did not inhibit"}]}
{"molecule": "OC[C@H]1O[C@@H](n2cnc3c(O)nc(O)nc32)[C@H](O)[C@@H]1O", "note": "[xanthosine]", "values": [{"measurement": "Inhibition of [3H]hypoxanthine uptake by nucleosides", "setting": "[5]", "value": "failure"}]}
{"molecule": "Nc1cc[nH]c(=O)n1", "note": "[cytosine]", "values": [{"measurement": "Inhibition of hypoxanthine uptake by pyrimidine nucleobases", "setting": "[5]", "value": "did not inhibit"}]}
{"molecule": "O=c1[nH]cnc2nc[nH]c12", "note": "[hypoxanthine]", "values": [{"measurement": "TbNT11.1-mediated uptake of radiolabeled substrate", "setting": "[1]", "value": "mediated uptake"}, {"measurement": "Inhibition of [14C]pentamidine uptake by unlabeled nucleobase", "setting": "[2]; 50 μM [14C]pentamidine", "value": "partially inhibited"}, {"measurement": "Transport by TbNT12.1 (in words)", "setting": "[3]; Xenopus oocytes", "value": "did not mediate the uptake"}, {"measurement": "Transport by TbNT12.2 (in words)", "setting": "[4]", "value": "did not mediate the uptake"}, {"measurement": "Inhibition of [14C]pentamidine uptake by PFs", "setting": "[12]", "value": "did not inhibit"}]}
{"molecule": "TbNT11.1 (Trypanosoma brucei brucei TREU927)", "values": [{"measurement": "Km", "setting": "[13]", "value": 141, "unit": "µM"}]}
{"molecule": "N=C(N)c1ccc(OCCCCCOc2ccc(C(=N)N)cc2)cc1", "note": "[pentamidine]", "values": [{"measurement": "EC50", "setting": "[5]", "value": 4.8, "unit": "µM"}, {"measurement": "EC50", "setting": "[6]", "value": 9.6, "unit": "µM"}, {"measurement": "Inhibition of hypoxanthine transport by TbNT8.1", "setting": "[14]", "value": "did not significantly inhibit"}, {"measurement": "Uptake of [14C]pentamidine by TbNT11.1 cRNA-injected oocytes", "setting": "[2]; 50 μM [14C]pentamidine, versus water injected oocytes", "value": "much more rapidly than control water injected oocytes"}, {"measurement": "Km", "setting": "[2]; read-out: Km for pentamidine uptake by TbNT11.1, Xenopus oocytes, 1 h, n=3", "value": "407 ± 119", "unit": "µM"}, {"measurement": "Vmax for pentamidine uptake by TbNT12.1", "setting": "[3]; Xenopus oocytes, n=3", "value": "21.8 ± 6.5", "unit": "pmol/h/oocyte"}, {"measurement": "Transport by TbNT12.1 (in words)", "setting": "[3]; Xenopus oocytes", "value": "also transport"}, {"measurement": "Transport by TbNT12.2 (in words)", "setting": "[4]", "value": "also transport"}]}
{"molecule": "Oc1ncnc2[nH]ncc12", "note": "[allopurinol, 4-hydroxypyrazolo[3,4-d]-pyrimidine-4-one]", "values": [{"measurement": "TbNT11.1-mediated uptake of radiolabeled substrate", "setting": "[1]", "value": "promoted uptake"}, {"measurement": "Ki", "setting": "[5]", "value": 67, "unit": "µM"}]}
{"molecule": "O=c1[nH]cnc2c1ncn2[C@@H]1O[C@H](CO)[C@@H](O)[C@H]1O", "note": "[inosine]", "values": [{"measurement": "Inhibition of [3H]hypoxanthine uptake by nucleosides", "setting": "[5]", "value": "failure"}]}
{"molecule": "Nc1nc2nc[nH]c2c(=O)[nH]1", "note": "[guanine]", "values": [{"measurement": "TbNT11.1-mediated uptake of radiolabeled substrate", "setting": "[1]", "value": "not a substrate"}, {"measurement": "Inhibition of [3H]hypoxanthine uptake by TbNT11.1 (in words)", "setting": "[5]", "value": "an inhibitor"}, {"measurement": "Transport by TbNT12.1 (in words)", "setting": "[3]; Xenopus oocytes", "value": "did not mediate the uptake"}, {"measurement": "Transport by TbNT12.2 (in words)", "setting": "[4]", "value": "did not mediate the uptake"}, {"measurement": "Inhibition of [14C]pentamidine uptake by PFs", "setting": "[12]", "value": "did not inhibit"}]}
{"molecule": "B1", "values": [{"measurement": "Km", "setting": "[15]", "value": "161 ± 8", "unit": "µM"}]}
